Results reported in publication PMC6353801, “Enhanced Anti-diabetic Effect of Berberine Combined With Timosaponin B2 in Goto-Kakizaki Rats, Associated With Increased Variety and Exposure of Effective Substances Through Intestinal Absorption” (Frontiers in Pharmacology, 2019).

What was measured:
primary rat hepatocytes = test: Hepatic metabolism in primary hepatocytes; settings: 3 h
GK rats [1] = test: Oral glucose tolerance test (OGTT) in GK rats on day 28; format: in vivo, rat; settings: after 4 weeks of treatment, glucose 2 g/kg oral
Experimental: (§1) Four-week-old male GK rats were fed a high-fat diet, and age-matched non-diabetic Wistar rats were fed standard chow as the control group. Under these dietary conditions, blood glucose was estimated each week for 7 weeks in 12-h fasted rats using a portable glucometer (One Touch Sure Step Meter, Johnson & Johnson, United States) by drawing the blood from the tail vein. GK rats with fasting blood glucose levels (FBG) above 16.7 mM were considered as diabetic rats, and only uniformly diabetic rats were used in this study. […] All the drugs were suspended in 0.5% carboxymethylcellulose sodium (CMC-Na) solution for oral gavage (10 ml/kg) once per day (at 9:00) for 6 weeks. Simultaneously, the Wistar and vehicle groups received vehicle over the treatment period. Food consumption and body weight were measured every week throughout the experimental periods. Non-fasting blood glucose (NFBG) levels were determined by collecting blood samples from the tail vein (at 9:00), and FBG levels were determined after a 6-h fast (at 15:00) on days 0, 7, 14, 21, and 42. On day 28, an oral glucose tolerance test (OGTT) was performed after an overnight fast. […] On day 42, the rats were anesthetized with urethane (1.4 g/kg, dissolved in saline) after an overnight fast and were sacrificed to collect the liver, kidney, heart, and spleen. The organs were weighed after washing with saline and drying to calculate the organ coefficient, namely, the ratio between the weight of organs and the body in each rat.

[2] = Body weight, food intake, organ coefficients and side effects in GK rats; format: in vivo, rat
Experimental: as §1

GK rats [3] = test: NFBG and FBG levels in GK rats, 6-week oral treatment; format: in vivo, rat; settings: during 6-week treatment, TB-2 33.3, BBR 66.7, TB-2+BBR 100, metformin 200 mg/kg/day
Experimental: as §1

**Q.** With `COc1ccc2cc3[n+](cc2c1OC)CCc1cc2c(cc1-3)OCO2` [BBR, berberine] as the compound, how does the “share of compound disappearing after incubation” value (primary rat hepatocytes; BBR 1 μM, 37°C) read?
**A.** approximately 80%

**Q.** What about the “effect on TB-2 levels after incubation” value (primary rat hepatocytes; TB-2 1 μM, BBR (5 μM, 30 μM)) of the same compound?
**A.** no improvement

**Q.** What about the “decrease in the AUC of blood glucose in OGTT vs vehicle” value (GK rats [1]) of the same compound?
**A.** didn’t significantly decrease

**Q.** What about the “decrease of blood glucose levels in OGTT at 30 min vs vehicle” value (GK rats [1]) of the same compound?
**A.** 24%

**Q.** What about the “effect on body weight or food consumption vs vehicle” value ([2]; 6-week oral treatment) of the same compound?
**A.** no effect

**Q.** What about the “effect on organ coefficients (liver and kidney) vs vehicle” value ([2]; day 42) of the same compound?
**A.** limited

**Q.** What about the “FBG levels compared with the vehicle group (in words)” value (GK rats [3]) of the same compound?
**A.** no significant differences

**Q.** What about the “NFBG levels compared with the vehicle group (in words)” value (GK rats [3]) of the same compound?
**A.** no significant differences
